# Data taken from patent publication US20020081266A1, “Spray dried powders for pulmonary or nasal administration” (Norton Healthcare Ltd., priority 1999, published 2002).
# Experiments:
# [1] = starting material
# Procedure: Thermogravimetric Analysis (TGA)
# Thermogravimetric analysis was carried out using a Mettler TG 50 linked to a Mettler MT5 balance. Data was processed using Mettler Toledo STAR software Version 5.1 with a Solaris operating system. Sample weights were between 5 and 10 mg and analysis was carried out under nitrogen purge. The scans were run from 30 to 350° C. at a heating rate of 10° C./minute. Two TGA scans were obtained for each system.
# [2] = Scanning electron microscopy (SEM) particle diameter; assay type: physicochemical; settings: for Particle diameters by SEM: spray dried from ethanolic solution
# Text: Scanning Electron Microscopy (SEM)
# The scanning electron microscope used was the Hitachi S-3500N variable pressure scanning electron microscope. Samples were mounted and sputtered with gold spray for SEM.
# The scanning electron microscope used was the Hitachi S-3500N variable pressure scanning electron microscope. Samples were mounted on aluminium stubs and spluttered with gold spray for SEM.
Compound,Temperature from which TGA mass loss due to degradation occurs [1],"Average particle diameter by SEM ([2]; starting material, not spray dried)",Particle diameters by SEM [2]
"COc1ccc(C[C@@H](C)NC[C@H](O)c2ccc(O)c(NC=O)c2)cc1.COc1ccc(C[C@@H](C)NC[C@H](O)c2ccc(O)c(NC=O)c2)cc1.O=C(O)/C=C/C(=O)O [Formoterol fumarate, formoterol fumarate]",≥ 150 °C,0.5-5 μm,–
"CC(C)[N+]1(C)[C@@H]2CC[C@H]1CC(OC(=O)C(CO)c1ccccc1)C2.[Br-] (stereo partly shown) [Ipratropium bromide, ipratropium bromide]",–,–,≥ 60 μm
salbutamol sulphate,–,–,< 3 μm
